Key:
[1] = Post-prandial plasma glucose after IV bolus or IV infusion in insulin-dependent diabetic subjects (Example 2); assay type: in vivo, human
Excerpt: (§1) Subjects in each dose group underwent a two period crossover to examine intravenous (IV) bolus versus IV infusion of drug. Each period consisted of a three-day confinement to the study unit. On each occasion, the initial day of confinement was allowed for acclimatization to the study unit. The second and third days constituted an imbedded crossover of placebo versus active medication. […] An imbedded cross-over design for the administration of drug and placebo on Days 2 and 3 of this admission was employed in a manner similar to that used during the first admission. The six subjects assigned to the placebo group received placebo on each of the study days. On study days, intravenous catheters were inserted at least 30 minutes prior to the start of the study. 15 minutes before dosing, the subjects took their usual insulin dose via subcutaneous injection. […] The infusion rate was designed to administer the assigned amount of drug over the two hour period. Thirty minutes later, the subjects ingested their normal breakfasts. Blood samples were taken between −30 and 300 minutes for the measurement of plasma.

[2] = set-up: species or system human; conditions: in vivo, iv
Excerpt: as §1

[3] = Plasma glucose after Sustacal meal or IV glucose load during AC-0137 infusion (Example 3); assay type: in vivo, human
Excerpt: Twenty-seven subjects with insulin-dependent diabetes mellitus were allocated into a combination of two dose level groups and two types of tolerance tests.
Subjects remained in the clinic for three days. On the first day of confinement, the subjects were acclimatized to the clinic. […] In addition, subjects received either a Sustacal® meal or iv glucose tolerance test, as determined by the group assignment.
During the first day, the subject's usual insulin and caloric intake was stabilized and each subject then followed this insulin and dietary regimen throughout confinement in the clinic.
at approximately, 0700 h (T=0), the continuous infusion of study medication was initiated. At T=30 minutes, the subjects administered their usual AM dose of insulin. […] The type of tolerance test was determined according to the randomization schedule. […] Study drug administration was discontinued at t=300 minutes.
On the morning of the third day, iv lines were again placed in a similar manner as on Day 2. Subjects administered their usual pre-breakfast dose of insulin as on Day 2. […] An identical standardized Sustacal® meal tolerance or iv glucose load as they received on Day 2 was again administered. At the end of the sampling period the iv lines were withdrawn.

[4] = 14-day study, Sustacal meal tolerance test glucose (Example 4); assay type: in vivo, human; conditions: 14 days
Experimental: 72 subjects with insulin-dependent diabetes mellitus participated in a 14-day clinical trial. Each subject was randomly assigned to one of four treatment groups, receiving placebo, 30, 100 or 300 μg tripro-amylin by subcutaneous injection three times a day for 14 days. The subjects also remained on their usual insulin regimen throughout the study. On days 1 (baseline), 7 and 14, standardized meal tolerance tests were performed.
For the standardized meal tolerance tests, subjects were given a Sustacal® liquid meal (360 ml containing 360 calories) at 0800 h. Subjects abstained from food or drink (except for water) from 2200 h the night before. […] For a baseline test, on day 1, tripro-amylin (or placebo) was not administered until after completion of the test. On day 7 and 14, tripro-amylin (or placebo) was administered in a separate injection at the same time as the usual morning insulin dose. Samples for determination of serum glucose levels were drawn at −30, 0, 30, 60, 120 and 180 minutes relative to the start of the challenge. Time zero was considered to be the time when the subject began to drink the Sustacal® meal.

[5] = Uptake of labelled oral glucose load in corpulent LA/N rats (Example 6); assay type: in vivo, rat
Experimental: Uptake of an ingested glucose load was measured in 11 conscious 24-hr fasted corpulent (500-600 g) LA/N rats on 2 occasions, 14 days apart.

[6] = Oral glucose tolerance test in dogs during amylin infusion (Example 1); assay type: in vivo, dog
Experimental: Mongrel dogs (9 males, 12-17 kg wt. range) were used for this study. All animals were fasted overnight prior to each study. Each animal served as its own control for all protocols. Animals were equilibrated for 30-60 minutes prior to the start of each protocol.
25% glucose (1 gm/kg) was administered by mouth at t=0 minutes. […] Samples for insulin, glucose and lactate were obtained at 15 minutes intervals from t=−45 to t=180 minutes.

CC[C@H](C)[C@H](NC(=O)[C@@H]1CCCN1C(=O)CNC(=O)[C@H](Cc1ccccc1)NC(=O)[C@H](CC(N)=O)NC(=O)[C@H](CC(N)=O)NC(=O)[C@H](CO)NC(=O)[C@H](CO)NC(=O)[C@H](Cc1c[nH]cn1)NC(=O)[C@@H](NC(=O)[C@H](CC(C)C)NC(=O)[C@H](Cc1ccccc1)NC(=O)[C@H](CC(N)=O)NC(=O)[C@H](C)NC(=O)[C@H](CC(C)C)NC(=O)[C@H](CCCNC(=N)N)NC(=O)[C@H](CCC(N)=O)NC(=O)[C@@H](NC(=O)[C@H](C)NC(=O)[C@@H]1CSSC[C@H](NC(=O)[C@@H](N)CCCCN)C(=O)N[C@@H](CC(N)=O)C(=O)N[C@@H]([C@@H](C)O)C(=O)N[C@@H](C)C(=O)N[C@@H]([C@@H](C)O)C(=O)N1)[C@@H](C)O)C(C)C)C(=O)N[C@@H](CC(C)C)C(=O)N1CCC[C@H]1C(=O)N1CCC[C@H]1C(=O)N[C@H](C(=O)N[C@@H](CC(N)=O)C(=O)N[C@H](C(=O)NCC(=O)N[C@@H](CO)C(=O)N[C@@H](CC(N)=O)C(=O)N[C@H](C(=O)N[C@@H](Cc1ccc(O)cc1)C(N)=O)[C@@H](C)O)C(C)C)[C@@H](C)O [^25,28,29Pro-h-Amylin]
Post-prandial glucose levels ([1]; IV bolus 30 μg): no apparent change in glucose levels
Post-prandial rise in glucose ([1]; IV bolus 100 μg): clearly delayed and less pronounced
Post-prandial rise in glucose ([1]; IV bolus 300 μg): essentially eliminated
Post-prandial rise in glucose ([1]; IV infusion 15 μg/hr): highly suggestive of an effect
Post-prandial rise in glucose ([1]; IV infusion 50 and 150 μg/hr): striking
Post-prandial hyperglycemia ([1]; continuous 2-hour IV infusion, 15-150 μg/hr): dose-dependent reduction in post-prandial hyperglycemia
Disappearance of drug from plasma compartment [2]: apparent first-order kinetics
Plasma glucose levels vs placebo ([3]; IV glucose load 300 mg/kg, 50 μg/hr IV infusion): not significantly different from placebo-treated subjects
Plasma glucose levels vs placebo ([3]; Sustacal meal, 25 μg/hr or 50 μg/hr IV infusion): reduced
Post-meal glucose: Mean of changes in AUC ([4]; 30 micrograms s.c. 3 times daily): −6,645 mb/dl * min.
Post-meal glucose: Mean of changes in AUC ([4]; 100 micrograms s.c. 3 times daily): −6,412 mb/dl * min.
Post-meal glucose: Mean of changes in AUC ([4]; 300 micrograms s.c. 3 times daily): −7,316 mb/dl * min.

ac-^10N^32Y8-32-salmon calcitonin [AC-0187]
Acceleration of appearance of glucose-derived tritium in plasma ([5]; 3 μg s.c. 3 min before gavage, 15 minutes post-gavage (P<0.02)): 48%
Acceleration of appearance of glucose-derived tritium in plasma ([5]; 3 μg s.c., 30 minutes post-gavage (P<0.001)): 45%
Plasma glucose ([5]; 15 minutes after gavage with 0.5 g glucose, rise from 5.89±0.17): 8.33 ± 0.28 mM
Plasma glucose ([5]; 60 minutes after glucose gavage): 6.89 ± 0.28 mM

acetyl-^11,18Arg, ^30Arg, ^32Tyr-^9-32calcitonin (salmon) [AC-0253]
Changes in plasma glucose, antagonist alone ([6]; AC-0253 alone): no effect
Reversal of amylin-induced changes in plasma glucose ([6]; AC-0253 up to 1500 pmol/kg/min with amylin 50 pmol/kg/min): does not completely reverse the effects of amylin
Effects on plasma lactate ([6]; oral glucose load): unremarkable

From patent US7407934B2, “Methods for regulating postprandial blood glucose” (Amylin Pharmaceuticals, Inc., priority 1993, dated 2008)
